Assay results: US20140271573A1, “PHARMACO-CELLULAR THERAPEUTIC METHOD FOR THE TREATMENT OF MUSCULAR DYSTROPHIES” (PONTIFICIA UNIVERSIDAD CATÓLICA DE CHILE, priority 2013, published 2014)

What was measured:
Type in all cases: in vivo, mouse
[1] = system: TGF-β1 canonical signaling pathway (p-Smad 2); assay: pSmad-2 indirect immunofluorescence in tibialis anterior cryosections of mdx mice; details: exercised mdx mice, 1 mg/kg i.p. 3 times per week for 3 months
Procedure: FIG. 2. Andrographolide reduced expression and activity of the pro-fibrotic cytokine, TGF-β1, in mdx mice. To augment the extent of muscle fibrosis, 3 months old mdx mice were subjected to an exercise protocol for 3 months. Along this period one group was treated with 1 mg/kg andrographolide or vehicle (i.p. injections 3 time per week, 4 animal per group). A) TGF-β1 mRNA levels, an important pro-fibrotic cytokine, were determined in tibialis anterior muscle from Wild type (WT), Vehicle-Treated mdx and andrographolide-treated mdx mice by RT-qPCR using GAPDH as reference gene. Values correspond to the mean of dCT value±SD of three independent experiments, using four mice for each experimental condition and normalized to WT levels (*, P<0.05 relative to WT mice; #, P<0.05 relative to Vehicle-treated mdx mice). B) Detection of pSmad-2 (an intracellular TGF-β1 mediator) through indirect immunofluorescence analysis in cryosections of tibialis anterior muscle from Vehicle-treated and andrographolide-treated mdx mice. Bar corresponds to 200 μm.
Control or mdx (12 weeks old) male mice of C57BL/10 ScSn strain were studied. The animals were kept at room temperature with a […] night-day cycle and fed with pellets and water ad libitum. […]

CTGF = CTGF mRNA levels in tibialis anterior muscle of exercised mdx mice, RT-qPCR; details: 1 mg/kg i.p. 3 times per week for 3 months, vs vehicle
Procedure: (§1) FIG. 3. Andrographolide modulates CTGF action in vivo. A) To augment the extent of muscle fibrosis, 3 months old mdx mice were subjected to an exercise protocol for 3 months. Along this period one group was treated with 1 mg/kg andrographolide or vehicle (i.p. injections 3 time per week, 4 animal per group). CTGF mRNA levels, a downstream TGF-β1 pro-fibrotic mediator) were determined in tibialis anterior muscle from Wild type (WT), Vehicle-Treated mdx and andrographolide-treated mdx mice by RT-qPCR using GAPDH as reference gene. Values correspond to the mean of dCT value±SD of three independent experiments, using four mice for each experimental condition and normalized to WT levels (*, P<0.05 relative to WT mice; #, P<0.05 relative to Vehicle-treated mdx mice). B) Detection of macrophages (F4/80 positive cells) through immunohistochemistry analysis in cryosections of tibialis anterior muscle from andrographolide-treated WT mice that overexpress CTGF by adenovirus (adv CTGF) infection.
(§2) Control or mdx (12 weeks old) male mice of C57BL/10 ScSn strain were studied. The animals were kept at room temperature with a […] night-day cycle and fed with pellets and water ad libitum. Experimental exercise was performed for running the mice in a treadmill for three times per week, 30 minutes each time at 12 m/min during 3 or 4 months (De Luca et al., 2005; De Luca et al., 2003). […]

[2] = system: WT mice that overexpress CTGF; assay: Macrophages (F4/80 positive cells) in tibialis anterior of WT mice overexpressing CTGF by adenovirus; details: CTGF overexpressed by adenovirus
Procedure: as §1
For immunofluorescence, snap-frozen muscles in thawing isopentane were sectioned and cryosections (7 μm) were fixed in 4% paraformaldehyde, blocked 1 hour in 10% goat serum in PBS, incubated for one hour at room temperature with specific antibodies against fibronectin (Sigma, USA), collagen I (Chemicon, USA), F4/80 (abcam, USA), p-Smad2 (abcam, USA) and dystrophin (Santa Cruz, USA). […]

mdx mice = assay: Collagen and fibronectin in tibialis anterior muscle of mdx mice, immunofluorescence and western blot; details: exercised mdx mice, 1 mg/kg i.p. 3 times per week for 3 months
Procedure: FIG. 5. Andrographolide reduced skeletal muscle fibrosis in mdx mice. To augment the extent of muscle fibrosis, 3 months old mdx mice were subjected to an exercise protocol for 3 months. Along this period one group was treated with 1 mg/kg andrographolide or vehicle (i.p. injections 3 time per week, 6 animal per group). A) Detection of collagen I and fibronectin by indirect immunofluorescence analysis in cryosections of tibialis anterior muscles from WT, Vehicle-treated mdx and andrographolide-treated mdx mice. Bar corresponds to 200 μm. B) fibronectin (FN) protein levels were detected by western blot analysis in extracts obtained from tibialis Anterior muscles from WT, Vehicle-treated mdx and andrographolide-treated mdx mice. […] GAPDH protein levels are shown as loading control; molecular weight markers are shown in kDa.
For immunoblot analyses, muscles were homogenized in 10 volume Tris-EDTA buffer with 1 mM PMSF as described previously (Morales et al., 2011). Briefly, proteins were determined in aliquots of muscle extracts using the bicinchoninic acid protein assay kit (Pierce, Ill.) using BSA as standard. Aliquots (50-100 μg) were subjected to SDS gel electrophoresis in 8% or 10% polyacrylamide gels, electrophoretically transferred onto PVDF membranes (Schleicher & Schuell) and probed with specific antibodies against fibronectin (Sigma-Aldrich, USA), collagen III (Rockland, USA and GAPDH (Millipore, USA), tubulin (Sigma-Aldrich, USA) and GAPDH (Sigma-Aldrich, USA). All immunoreactions were visualized by enhanced chemiluminescence kit (Pierce, USA). Densitometric analysis and quantification were performed using ImageJ software (NIH, USA) (Cabello-Verrugio et al., 2012).
as §2

SMILES: C=C1CC[C@@H]2[C@](C)(CO)[C@H](O)CC[C@@]2(C)[C@@H]1C/C=C1/C(=O)OC[C@H]1O [andrographolide]
- number of positive nuclei for phosphorylated smad2 protein [1]: reduced
- CTGF expression (mRNA) in mdx mice (CTGF): reduced
- number of F4/80 (macrophage marker) positive cells [2]: reduced
- accumulation of collagen type I, immunofluorescence staining (mdx mice; tibialis anterior): strongly decrease
- accumulation of fibronectin, immunofluorescence staining (mdx mice; tibialis anterior): strongly decrease
- fibronectin protein levels by western blot analysis (mdx mice; tibialis anterior extracts): decreased
